For the test, the system named is Tetranychus cinnabarinus eggs. As to the kind of experiment: Determination of activity of Tetranychus cinnabarinus eggs (greenhouse spray test). It is filed as in vivo. As to conditions: 120 h, concentration of the chemical solution 5 mg/L, spray treatment of eggs on marrow bean leaf, examined after 5 days, read-out: hatching inhibition rate for Tetranychus cinnabarinus eggs. On the procedure: The acaricidal activity in a greenhouse was determined by using the compound of the present invention. The determination method is as follows: According to the solubility of the compound to be tested, the compound was dissolved with acetone or dimethyl sulfoxide, and prepared into 50 ml of solution to be tested in a concentration needed with 0.1% Tween 80 solution, in which the content of acetone or dimethyl sulfoxide comprises not more than […]. A potted marrow bean seedling with two true leaves was taken, one true leaf was removed, then 10 female adult mites of healthy Tetranychus cinnabarinus were inoculated to the leaf, the adult mites were removed after 24 hours, spray treatment was performed after examination of the number of eggs. Every treatment was performed for 3 times. After 5 days, when all the blank control eggs were incubated, the number of the eggs which were not incubated in each treatment was examined to calculate the incubation inhibition rate.

In the case of `Cc1cc(F)c(N2Cc3ccccc3C2=O)cc1SCC(F)(F)F` [compound 1], the inhibition at 5 µg/mL is ≥ 90%.

Regarding `Cc1cc(F)c(N2Cc3ccccc3C2=O)cc1[S+]([O-])CC(F)(F)F` (centres unmarked) [compound 2], the inhibition at 5 µg/mL is ≥ 90%.

One may read the inhibition as how much of the control response was suppressed.

For the origin of these results see patent US11363815B2, “Trifluoroethyl thioether (sulfoxide) substituted benzene compound and use thereof” (SHENYANG UNIVERSITY OF CHEMICAL TECHNOLOGY, priority 2018, dated 2022).
